As usually defined, the inhibition is the percentage by which the read-out fell short of the control. One may read the Ki as the equilibrium dissociation constant of an inhibitor or competing ligand from its target.

One experiment relates to UO-31. Briefly: NCI-60 single-dose antiproliferative assay (SRB). The note with it: Homo sapiens, UO-31, 10 μM single dose; UO-31, Renal cancer; read-out: Cell Growth inhibition Percent. The class given is cell-based, human. As for the experimental part:
(§1) From the newly synthesized compounds, eleven compounds (4c, 4d, 5, 9a, 9b, 11a, 11b, 13b, 13c, 15b, and 15c) were selected by the National Cancer Institute (NCI) Developmental Therapeutics Program (DTP), Bethesda, Maryland, USA for the in vitro anti-proliferative activity evaluation. The selected compounds were examined at 10 μM dose against the NCI 60-cell line panel. This panel consists of nine cell line groups of leukemia, non-small cell lung carcinoma (NSCLC), melanoma, colon, CNS, ovarian, renal, prostate, and breast cancers. The results are reported as mean-graph of the percent growth relative to control and presented as percentage growth inhibition (GI%), furthermore, mean GI% of each compound over all panel cell lines was calculated (Table 1; Additional file 1; S3: In vitro biological activity).
(§2) From the newly synthesized compounds, eleven compounds were selected by the National Cancer Institute (NCI) Developmental Therapeutics Program (DTP), Bethesda, Maryland, USA for the in vitro anti-proliferative activity evaluation (For further details see supplementary materials).
(§3) NCI In-vitro Cancer Screening is a two-phase procedure that starts with the assessment of all compounds against the sixty NCI cell line panel depicting leukemia, NSCLC, CNS cancer, melanoma, prostate cancer, breast cancer, renal cancer, colon cancer and ovarian cancer cell lines at a single point of 10μM. The output from the single-dose screen is reportable as a mean graph.
(§4) The human tumor cell lines of the cancer screening panel were grown in RPMI 1640 medium containing 5% fetal bovine serum and 2 mM L-glutamine. For a typical screening experiment, cells were inoculated into 96 well microtiter plates in […] at plating densities ranging from 5000 to 40,000 cells/well depending on the doubling time of individual cell lines. After cell inoculation, the microtiter plates were incubated at 37 °C, 5% CO2, 95% air and 100% relative humidity for 24 h prior to addition of experimental drugs. After 24 h, two plates of each cell line were fixed in situ with trichloroacetic acid (TCA), to represent a measurement of the cell population for each cell line at the time of drug addition (Tz). Experimental drugs were solubilized in dimethyl sulfoxide at 400-fold the desired final maximum test concentration and stored frozen prior to use. At the time of drug addition, an aliquot of frozen concentrate was thawed and diluted to twice the desired final maximum test concentration with complete medium containing 50 µg/ml gentamicin. Aliquot of 100 µl of the drug dilution was added to the appropriate microtiter wells already containing 100 µl of medium, resulting in the required final drug concentration (10 µM). Triplicate wells were prepared for each individual dose. Following drug addition, the plates were incubated for an additional 48 h at 37 °C, 5% CO2, 95% air, and 100% relative humidity. For adherent cells, the assay was terminated by the addition of cold TCA. Cells were fixed in situ by the gentle addition of 50 µl of cold 50% (w/v) TCA (final concentration, 10% TCA) and incubated for 60 min at 4 °C. The supernatant was discarded, and the plates were washed five times with tap water and air dried. Sulforhodamine B (SRB) solution (100 µl) at 0.4% (w/v) in 1% acetic acid was added to each well, and plates were incubated for 10 min at room temperature. After staining, unbound dye was removed by washing five times with 1% acetic acid and the plates were air dried. Bound stain was subsequently solubilized with 10 mM trizma base, and the absorbance was read on an automated plate reader at a wavelength of 515 nm. For suspension cells, the methodology was the same except that the assay was terminated by fixing settled cells at the bottom of the wells by gently adding 50 µl of 80% TCA (final concentration, 16% TCA). […]

The target in another experiment is hCA XII (Homo sapiens, UniProt O43570). Briefly: Stopped flow CO2 hydrase assay. The note with it: for Selectivity ratio I/XII: Ki hCA I / Ki hCA XII; for Selectivity ratio II/XII: Ki hCA II / Ki hCA XII.
Chain of hCA XII (O43570 25-354): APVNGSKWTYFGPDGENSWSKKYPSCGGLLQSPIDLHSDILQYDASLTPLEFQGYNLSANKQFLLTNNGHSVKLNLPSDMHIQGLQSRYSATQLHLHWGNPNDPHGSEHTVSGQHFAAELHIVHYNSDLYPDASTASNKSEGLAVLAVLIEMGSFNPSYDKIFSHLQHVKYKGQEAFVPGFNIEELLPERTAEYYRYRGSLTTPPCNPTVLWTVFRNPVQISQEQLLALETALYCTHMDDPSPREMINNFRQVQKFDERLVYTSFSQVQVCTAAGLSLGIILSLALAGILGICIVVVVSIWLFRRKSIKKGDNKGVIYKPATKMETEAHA
The subject of a further experiment is NCI 60 cancer cell lines. The experiment is described as follows: NCI-60 single-dose antiproliferative assay, mean over panel. The class given is cell-based. As to conditions: Homo sapiens; 10 μM single dose; mean over all NCI panel cell lines; read-out: MEAN % Growth inhibition. As for the experimental part:
as §1, §2, §3, §4

Another experiment deals with A549/ATCC. Briefly: NCI-60 single-dose antiproliferative assay (SRB). The class given is cell-based. The note with it: Homo sapiens, 10 μM single dose, Non-small cell lung cancer, read-out: Cell Growth inhibition Percent. The gist of the method:
(§5)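 Single dose 10 µM (final), 48 h, 37 °C, 5% CO2; RPMI 1640/5% FBS. Endpoint: TCA fixation, 0.4% SRB, absorbance 515 nm. % growth = (Ti–Tz)/(C–Tz)×100, or (Ti–Tz)/Tz×100 when Ti < Tz; reported as GI%.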

The next experiment concerns KM12. Briefly: NCI-60 single-dose antiproliferative assay (SRB). It is filed as cell-based. As to conditions: Homo sapiens; 10 μM single dose; KM12, Colon cancer; read-out: Cell Growth inhibition Percent. The gist of the method:
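Cells grown in RPMI 1640 with 5% FBS and 2 mM L-glutamine were plated, left 24 h at 37 °C, then exposed to compound at a single 10 µM final concentration for 48 h. Adherent cells were TCA-fixed, SRB-stained and read at 515 nm; growth was expressed relative to time-zero and untreated controls.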

For a further experiment, the system named is SN12C. Briefly: NCI-60 single-dose antiproliferative assay (SRB). It is filed as cell-based. The note with it: Homo sapiens, 10 μM single dose, Renal cancer, read-out: Cell Growth inhibition Percent. The gist of the method:
as §5

The next experiment has as its system SNB-75. The experiment is described as follows: NCI-60 single-dose antiproliferative assay (SRB). The class given is cell-based. As to conditions: Homo sapiens; 10 μM single dose; SNB-75, CNS cancer; read-out: Cell Growth inhibition Percent. The gist of the method: as §5
The next experiment concerns MALME-3 M. Briefly: NCI-60 single-dose antiproliferative assay (SRB). The class given is cell-based. As to conditions: Homo sapiens, 10 μM single dose, Melanoma, read-out: Cell Growth inhibition Percent. The gist of the method: as §5
Another experiment concerns OVCAR-4. Briefly: NCI-60 single-dose antiproliferative assay (SRB). It is filed as cell-based. As to conditions: Homo sapiens; 10 μM single dose; OVCAR-4, Ovarian Cancer; read-out: Cell Growth inhibition Percent. The gist of the method:
as §5

The next experiment relates to T-47D. Briefly: NCI-60 single-dose antiproliferative assay (SRB). The class given is cell-based. As to conditions: Homo sapiens, T47D, 10 μM single dose, Breast cancer, read-out: Cell Growth inhibition Percent. The gist of the method: as §5
The next experiment deals with K-562. Briefly: NCI-60 single-dose antiproliferative assay (SRB). It is filed as cell-based. As to conditions: Homo sapiens, K562; 10 μM single dose; K-562, Leukemia; read-out: Cell Growth inhibition Percent. The gist of the method:
as §5

A further experiment addresses hCA IX (Homo sapiens, UniProt Q16790). The experiment is described as follows: Stopped flow CO2 hydrase assay. The note with it: for Selectivity ratio I/IX: Ki hCA I / Ki hCA IX; for Selectivity ratio II/IX: Ki hCA II / Ki hCA IX.
For another experiment, the system named is UACC-62. Briefly: NCI-60 single-dose antiproliferative assay (SRB). It is filed as cell-based. As to conditions: Homo sapiens; 10 μM single dose; UACC-62, Melanoma; read-out: Cell Growth inhibition Percent. The gist of the method: as §5
The next experiment concerns SF-295. Briefly: NCI-60 single-dose antiproliferative assay (SRB). The note with it: Homo sapiens; 10 μM single dose; SF-295, CNS cancer; read-out: Cell Growth inhibition Percent. The class given is cell-based. The gist of the method:
as §5

Another experiment relates to U251. The experiment is described as follows: NCI-60 single-dose antiproliferative assay (SRB). The note with it: Homo sapiens, U-251; 10 μM single dose; U251, CNS cancer; read-out: Cell Growth inhibition Percent. The class given is cell-based. The gist of the method:
as §5

The next experiment concerns BT-549. The experiment is described as follows: NCI-60 single-dose antiproliferative assay (SRB). It is filed as cell-based. The note with it: Homo sapiens; 10 μM single dose; BT-549, Breast cancer; read-out: Cell Growth inhibition Percent. The gist of the method:
as §5

The next experiment deals with NCI-H460. Briefly: NCI-60 single-dose antiproliferative assay (SRB). The class given is cell-based. As to conditions: Homo sapiens; 10 μM single dose; NCI-H460, Non-small cell lung cancer; read-out: Cell Growth inhibition Percent. The gist of the method: as §5
The subject of a further experiment is A498. Briefly: NCI-60 single-dose antiproliferative assay (SRB). It is filed as cell-based. The note with it: Homo sapiens; 10 μM single dose; A498, Renal cancer; read-out: Cell Growth inhibition Percent. The gist of the method: as §5

`NS(=O)(=O)c1ccc(NCc2ccc(NC=C3C(=O)Nc4ccccc43)cc2)cc1` [Compound 11a, 4-{[4-({[2-Oxoindolin-3-ylidene]methyl}amino)benzyl]amino}benzenesulfonamide]: the inhibition at 10 µM stood at 44% with UO-31; 2.58% in the experiment on NCI 60 cancer cell lines; 4.86% in the experiment with A549/ATCC; 13.9% in the experiment on KM12; 22.9% in the experiment on SN12C; 32.8% in the experiment on SNB-75. Further, the inhibition at 10 µM in the experiment on MALME-3 M worked out at 3.16%; in the experiment on OVCAR-4 it was 12.6%; in the experiment on T-47D, 6.76%; with K-562, 0.06%. Moreover, the Ki on hCA XII is 78.6 nM; at hCA IX, 217 nM. For the same compound, the “Selectivity ratio I/XII” value at hCA XII was found to be 4.08. The “Selectivity ratio II/XII” value at hCA XII is on record as 9.50. Further, the “Selectivity ratio I/IX” value on hCA IX is on record as 1.48. Moreover, the “Selectivity ratio II/IX” value on hCA IX stood at 3.43.
For `NS(=O)(=O)c1nnc(NC=C2C(=O)Nc3ccccc32)s1` [Compound 4d, 5-{[(2-Oxoindolin-3-ylidene)methyl]amino}-1,3,4-thiadiazole-2-sulfonamide], the inhibition at 10 µM came out at 27.5% in the experiment on UO-31; 3.05% with UACC-62; 4.63% with KM12; 18.8% with SNB-75; 1.55% in the experiment on OVCAR-4; 14.8% in the experiment on T-47D. Also, the inhibition at 10 µM was found to be 0.84% with SF-295, 0.06% with U251 and 1.21% with BT-549. Moreover, the figures for the inhibition constant (Ki) at hCA XII and at hCA IX were 8.7 nM and 84.2 nM, respectively. Moreover, on hCA XII, the “Selectivity ratio I/XII” value stood at 0.966. Further, at hCA XII, the “Selectivity ratio II/XII” value is listed as 0.448. Besides, the “Selectivity ratio I/IX” value at hCA IX was 0.100. For the same compound, on hCA IX, the “Selectivity ratio II/IX” value amounted to 0.046.
Regarding `O=C1Nc2ccccc2C1=CNc1ccc(C(=O)Nc2ccc(S(=O)(=O)Nc3ncccn3)cc2)cc1` [Compound 9b, 4-{[(2-Oxoindolin-3-ylidene)methyl]amino}-N-{4-[N-(pyrimidin-2-yl)sulfamoyl]phenyl}benzamide], the inhibition at 10 µM is 43.7% in the experiment with UO-31; 2.55% in the experiment on NCI 60 cancer cell lines; 7.84% in the experiment with UACC-62; 43.9% in the experiment on KM12; 20.5% in the experiment on SN12C; 31.3% in the experiment with SNB-75. The inhibition at 10 µM in the experiment with NCI-H460 was 1.64%; in the experiment with MALME-3 M, 2.09%; in the experiment on OVCAR-4, 7.67%; in the experiment on A498 it was 9.11%; with K-562, 3.5%; in the experiment on BT-549, 27.1%. Further, the Ki on hCA XII and at hCA IX was greater than 10000 nM throughout.
`O=C1Nc2ccccc2C1=CNc1ccc(C(=O)O)cc1` [Compound 4c, 4-{[(2-Oxoindolin-3-ylidene)methyl]amino}benzoic acid]: the inhibition at 10 µM with UO-31 worked out at 49.7%; in the experiment with NCI 60 cancer cell lines it was 3.71%; in the experiment with A549/ATCC, 9.11%; in the experiment on KM12, 49.2%; in the experiment with SN12C it was 24.8%; with SNB-75 it was 44.3%. In addition, the results for the inhibition at 10 µM with MALME-3 M, with OVCAR-4 and in the experiment on A498 were 0.23%, 13.3% and 20.1%, respectively. Moreover, the inhibition constant Ki on hCA XII and at hCA IX was greater than 10000 nM each time.
`NS(=O)(=O)N/C=C1/C(=O)Nc2ccccc21` [Compound 5, 3-(sulfamidmethylene)indoline-2-one]: the inhibition at 10 µM in the experiment on UO-31 turned out to be 34.6%; with UACC-62 it was 4.35%; in the experiment with KM12, 1.51%; in the experiment with SNB-75, 16.5%; with T-47D, 7.19%; in the experiment on U251, 2.06%. Besides, the inhibition at 10 µM with BT-549 was 0.96%. Further, the inhibition constant (Ki) at hCA XII was found to be 42.4 nM; at hCA IX it was 208 nM. Moreover, the “Selectivity ratio I/XII” value at hCA XII was 149.65. The “Selectivity ratio II/XII” value at hCA XII came to 21.54. For the same compound, the “Selectivity ratio I/IX” value at hCA IX is 30.48. In addition, on hCA IX, the “Selectivity ratio II/IX” value came out at 4.39.
For the compound `O=C1Nc2ccccc2C1=CNc1ccc(C(=O)C=CNc2nccs2)cc1` [Compound 13c, 3-{[(4-{3-[Thiazol-2-ylamino]acryloyl}phenyl)amino]methylene}indolin-2-one], the inhibition at 10 µM came out at 16.2% with UO-31; 3.28% with NCI 60 cancer cell lines; 21.6% in the experiment with A549/ATCC; 59% in the experiment with KM12; 11.6% with SN12C; 7.04% in the experiment on NCI-H460. The inhibition at 10 µM in the experiment with OVCAR-4 is 3.49%; with K-562, 24.8%; in the experiment on BT-549, 13.6%. Besides, the inhibition constant Ki at hCA XII and at hCA IX was greater than 10000 nM throughout.
